# In patent US20220401514A1, “ANTIMICROBIAL, BACTERIOPHAGE-DERIVED POLYPEPTIDES AND THEIR USE AGAINST GRAM-NEGATIVE AND ACID-FAST BACTERIA” (CONTRAFECT CORPORATION, priority 2019, published 2022):
# Where two headings read alike, the source gives them in different places.
# How the values were obtained:
# [1] = tested on: carbapenem-resistant P. aeruginosa clinical isolate CFS-1292; experiment: MIC by modified CLSI broth microdilution against P. aeruginosa CFS-1292 (CAA, CAA + human serum); type: cell-based, Pseudomonas aeruginosa
# Pseudomonas aeruginosa = experiment: microbe, parasite or virus in culture; type: cell-based; details: for MIC: CAA without human serum
# Enterobacter cloacae = experiment: microbe, parasite or virus in culture; type: cell-based
# Summary of the method: (§1)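 Strains are exposed to peptide dilutions in CAA containing human serum, and the minimal inhibitory concentration is recorded.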
# Escherichia coli = experiment: microbe, parasite or virus in culture; type: cell-based
# Summary of the method: as §1
# Klebsiella pneumoniae [2] = type: cell-based
# Experimental: (§2) Determination of Minimal Inhibitory Concentrations (MIC).
# Additional MIC testing was performed for several peptides against the ESKAPE pathogens Escherichia coli, Enterobacter cloacae, Klebsiella pneumoniae, and Acinetobacter baumannii, in CAA supplemented with human serum (Table D).
# Acinetobacter baumannii = experiment: microbe, parasite or virus in culture; type: cell-based
# S. maltophilia = experiment: MIC against S. maltophilia isolates; type: cell-based, Stenotrophomonas maltophilia; details: S. maltophilia isolates (n per peptide in table)
# Experimental: as §2
# In addition to the results discussed above in Example 3, further testing was conducted on several Chp peptides. MIC values were determined against different species, including P. aeruginosa, K. pneumoniae, A. baumannii, E. cloacae, E. coli, and S. maltophilia, and the results are presented below in Tables 40-45, wherein n=number of isolates tested for each species and MIC is measured as μg/mL.
# [3] = tested on: carbapenem-resistant bacterial strains; experiment: organism not typed; type: cell-based
# Text: as §2
# [4] = Stability assessment in 100% CAA; type: in vitro ADME; set-up: unit not given beside the values
# Experimental: Stability was assessed after incubation in 100% human serum at 37° C. after 10 minutes, 1 hour, and 2 hours.
# Stability assessment was further conducted in 100% CAA and rabbit serum using the same methodology discussed above.
# M. smegmatis = experiment: 45 hr MIC against M. smegmatis (NTM), Mueller Hinton broth; type: cell-based, Mycobacterium smegmatis
# M. fortuitum = experiment: 45 hr MIC against M. fortuitum (NTM); type: cell-based, Mycobacterium fortuitum; details: M. fortuitum subsp. Fortuitum da Costa Cruz. ATCC 6841
# M. avium = experiment: 45 hr MIC against M. avium (NTM); type: cell-based, Mycobacterium avium; details: M. avium Chester ATCC 700898
# M. scrofulaceum = experiment: 45 hr MIC against M. scrofulaceum (NTM); type: cell-based, Mycobacterium scrofulaceum; details: M. scrofulaceum Prissick and Masson ATCC 19981
# M. intracellulare = experiment: 45 hr MIC against M. intracellulare (NTM); type: cell-based, Mycobacterium intracellulare; details: M. intracellulare (Cuttino and McCabe) Runyon ATCC 13950
# [5] = tested on: P. aeruginosa strain CFS-1292; experiment: MIC in presence and absence of NaCl (140 mM); type: cell-based, Pseudomonas aeruginosa
# Experimental: Certain Chp peptides were evaluated over a range of physiological NaCl levels and pH values, and were further evaluated for activity in the presence of various divalent cations.
# [6] = tested on: M. kansasii Hauduroy ATCC 12478; experiment: 45 hr MIC against M. kansasii (NTM), Mueller Hinton broth; type: cell-based, Mycobacterium kansasii
# [7] = tested on: Mycobacterium tuberculosis strains
# Experimental: MIC values for various Chp peptides were determined using the CLSI method for broth microdilution in 96-well microtiter format.
# Next, MIC values for various Chp peptides were determined using the CLSI method above for broth microdilution in 96-well microtiter format for two different Mycobacterium tuberculosis strains. The MIC was determined as explained above for the NTM strains.
# Klebsiella pneumoniae [8] = experiment: microbe, parasite or virus in culture; type: cell-based; details: CAA without human serum
# [9] = tested on: P. aeruginosa strain PAO1; experiment: MIC against PAO1 in Mueller-Hinton broth with 50% human plasma or human serum; type: cell-based, Pseudomonas aeruginosa; details: PAO1; for Minimal inhibitory concentration, Human Plasma: Mueller-Hinton broth with 50% human plasma; for Minimal inhibitory concentration, Human Serum: Mueller-Hinton broth with human serum
# [10] = P. aeruginosa isolates (n per peptide in table)
# [11] = E. cloacae isolates (n per peptide in table)
# [12] = E. coli isolates (n per peptide in table)
# [13] = K. pneumoniae isolates (n per peptide in table)
# [14] = A. baumannii isolates (n per peptide in table)
substance,measurement,setting,value
MARSRRRMSKRSSRRSFRKYAKSHKKNFKARSMRGGIRL [Ecp2],MIC (μg/mL) against CFS-1292 in 100% CAA (1st run/2nd run),"[1]; 100% CAA, 1st run or single value",0.25 µg/mL
same,MIC (μg/mL) against CFS-1292 in CAA + […] human serum,[1]; CAA + […] human serum,0.25 µg/mL
same,MIC,"Pseudomonas aeruginosa; P. aeruginosa 453 (Human clinical isolate, HSS), RSC 1292",8 µg/mL
same,MIC,"Pseudomonas aeruginosa; P. aeruginosa (ATCC 14213, human hip wound), RSC 1111",4 µg/mL
same,MIC,"Pseudomonas aeruginosa; P. aeruginosa (ATCC 15152, abscess in middle ear), RSC 1110",1 µg/mL
same,MIC,"Pseudomonas aeruginosa; P. aeruginosa (ATCC 15692, infected wound), RSC 489",2 µg/mL
same,MIC,"Pseudomonas aeruginosa; P. aeruginosa (ATCC 15692, infected wound), RSC 1115",8 µg/mL
same,MIC,"Pseudomonas aeruginosa; P. aeruginosa (ATCC 17646, human liver abscess), RSC 1109",4 µg/mL
same,MIC,"Pseudomonas aeruginosa; P. aeruginosa (ATCC 19142, tracheobronchial secretion), RSC 1108",4 µg/mL
same,MIC,"Pseudomonas aeruginosa; P. aeruginosa (ATCC 25102, bacteriophage host), RSC 1114",2 µg/mL
same,MIC,"Pseudomonas aeruginosa; P. aeruginosa (ATCC 27853, MIC control strain), RSC 815",2 µg/mL
same,MIC,"Pseudomonas aeruginosa; P. aeruginosa (ATCC BAA-27, lab strain), RSC 1113",2 µg/mL
same,MIC,"Pseudomonas aeruginosa; P. aeruginosa (PAO1, alternate source, HER1018), RSC 490",2 µg/mL
same,MIC50,Pseudomonas aeruginosa; [10],2 µg/mL
same,MIC100,Pseudomonas aeruginosa; [10],8 µg/mL
same,MIC Range,Pseudomonas aeruginosa; [10],0.5 to 8 µg/mL
same,MIC50,Enterobacter cloacae; [11],0.25 µg/mL
same,MIC100,Enterobacter cloacae; [11],0.5 µg/mL
same,MIC Range,Enterobacter cloacae; [11],0.125 to 2 µg/mL
same,MIC,"Enterobacter cloacae; Enterobacter cloacae (ATCC 13047, MIC control strain), RSC 1240, CAA without human serum",4 µg/mL
same,MIC,"Enterobacter cloacae; Enterobacter cloacae ATCC 13047, CAA supplemented with human serum",16 µg/mL
same,MIC,"Escherichia coli; E. coli (ATCC 25922, MIC control strain), RSC 813, CAA without human serum",2 µg/mL
same,MIC,"Escherichia coli; E. coli (HM346, colon, Crohn's disease), RSC 1212, CAA without human serum",4 µg/mL
same,MIC50,Escherichia coli; [12],0.5 µg/mL
same,MIC100,Escherichia coli; [12],1 µg/mL
same,MIC Range,Escherichia coli; [12],0.24 to 4 µg/mL
same,MIC,"Escherichia coli; Escherichia coli ATCC 25922, CAA supplemented with human serum",0.5 µg/mL
same,MIC50,Klebsiella pneumoniae [2]; [13],0.5 µg/mL
same,MIC100,Klebsiella pneumoniae [2]; [13],1 µg/mL
same,MIC Range,Klebsiella pneumoniae [2]; [13],0.5 to 1 µg/mL
same,MIC,"Klebsiella pneumoniae [2]; Klebsiella pneumoniae HM-44, CAA supplemented with human serum",0.25 µg/mL
same,MIC50,Acinetobacter baumannii; [14],0.25 µg/mL
same,MIC100,Acinetobacter baumannii; [14],0.5 µg/mL
same,MIC Range,Acinetobacter baumannii; [14],0.125 to 0.5 µg/mL
same,MIC,"Acinetobacter baumannii; Acinetobacter baumannii (clinical isolate HSS), RSC 30, CAA without human serum",2 µg/mL
same,MIC,"Acinetobacter baumannii; Acinetobacter baumannii (clinical isolate HSS), RSC 32, CAA without human serum",2 µg/mL
same,MIC,"Acinetobacter baumannii; Acinetobacter baumannii ATCC BAA 747, CAA supplemented with human serum",1 µg/mL
same,MIC50,S. maltophilia,8 µg/mL
same,MIC100,S. maltophilia,>8 µg/mL
same,MIC,[3]; carbapenem-resistant isolate PA19,0.5 µg/mL
same,MIC,[3]; carbapenem-resistant isolate PA20,8 µg/mL
same,MIC,[3]; carbapenem-resistant isolate PA21,8 µg/mL
same,MIC,[3]; carbapenem-resistant isolate PA22,4 µg/mL
same,MIC,[3]; carbapenem-resistant isolate PA23,2 µg/mL
same,MIC,[3]; carbapenem-resistant isolate PA24,2 µg/mL
same,MIC,[3]; carbapenem-resistant isolate WLC-452,1 µg/mL
same,MIC (100% CAA),[4],0.25
same,45 hr MIC,"M. smegmatis; M. smegmatis MC^2 155, Run #1",4 µg/mL
same,45 hr MIC,"M. smegmatis; M. smegmatis MC^2 155, Run #2",8 µg/mL
same,45 hr MIC,M. fortuitum,4 µg/mL
same,45 hr MIC,M. avium,2 µg/mL
same,45 hr MIC,M. scrofulaceum,4 µg/mL
same,45 hr MIC,M. intracellulare,8 µg/mL
same,Fold change in MIC,[5]; CAA + 140 mM NaCl versus CAA without added NaCl,8
same,"MIC, CAA + 140 mM NaCl","[5]; CAA + 140 mM NaCl, P. aeruginosa CFS-1292",2 µg/mL
same,"MIC, CAA (no added NaCl)","[5]; CAA, no added NaCl, P. aeruginosa CFS-1292",0.25 µg/mL
same,45 hr MIC,[6],2 µg/mL
same,MIC,[7]; Mycobacterium tuberculosis (Zopf) Lehmann and Neumann ATCC 25177,32 µg/mL
same,MIC,[7]; Mycobacterium tuberculosis (Zopf) Lehmann and Neumann ATCC 35817,8 µg/mL
same,MIC,"Klebsiella pneumoniae [8]; Klebsiella pneumoniae (ATCC 10031, MIC control strain), RSC 814",4 µg/mL
same,MIC,"Klebsiella pneumoniae [8]; Klebsiella pneumoniae (g2-3 HM35K), RSC 1138",2 µg/mL
same,MIC,"Klebsiella pneumoniae [8]; Klebsiella sp. (HM-44; colon, Crohn's disease), RSC 1139",4 µg/mL
same,MIC,"Klebsiella pneumoniae [8]; Klebsiella spp. (HM-223; gut of Crohn's disease patient), RSC 1131",2 µg/mL
Protegrin 1,"Minimal inhibitory concentration, Human Plasma",[9],1 µg/mL
same,"Minimal inhibitory concentration, Human Serum",[9],4 µg/mL
"Pediocin (KYYGNGVTCGKHSCSVDWGKATTCIINNGAMAWATGGHQGNHKC; Bacteriocin pediocin PA-1; UniProt P29430 19-62, looked up)","Minimal inhibitory concentration, Human Plasma",[9],>64 µg/mL
same,"Minimal inhibitory concentration, Human Serum",[9],>64 µg/mL
